# Laboratory results reported in US9944654B2, “Nargenicin compounds and uses thereof as antibacterial agents” (priority 2014, dated 2018).
# Like-named read-outs stand apart in the source and are kept apart here.
# Columns and labels:
# [1] = target: T1, S. aureus DnaE (DNA polymerase III α-subunit homolog from Staphylococcus aureus) (Staphylococcus aureus, UniProt Q5HF71); test: biochemical; type: biochemical
# T1 construct: SaDnaE (S. aureus DnaE residues 1-1065); 6xHis (N); made in house; host or cells: E. coli BL21-AI
# T1 sequence (Q5HF71 1-1065): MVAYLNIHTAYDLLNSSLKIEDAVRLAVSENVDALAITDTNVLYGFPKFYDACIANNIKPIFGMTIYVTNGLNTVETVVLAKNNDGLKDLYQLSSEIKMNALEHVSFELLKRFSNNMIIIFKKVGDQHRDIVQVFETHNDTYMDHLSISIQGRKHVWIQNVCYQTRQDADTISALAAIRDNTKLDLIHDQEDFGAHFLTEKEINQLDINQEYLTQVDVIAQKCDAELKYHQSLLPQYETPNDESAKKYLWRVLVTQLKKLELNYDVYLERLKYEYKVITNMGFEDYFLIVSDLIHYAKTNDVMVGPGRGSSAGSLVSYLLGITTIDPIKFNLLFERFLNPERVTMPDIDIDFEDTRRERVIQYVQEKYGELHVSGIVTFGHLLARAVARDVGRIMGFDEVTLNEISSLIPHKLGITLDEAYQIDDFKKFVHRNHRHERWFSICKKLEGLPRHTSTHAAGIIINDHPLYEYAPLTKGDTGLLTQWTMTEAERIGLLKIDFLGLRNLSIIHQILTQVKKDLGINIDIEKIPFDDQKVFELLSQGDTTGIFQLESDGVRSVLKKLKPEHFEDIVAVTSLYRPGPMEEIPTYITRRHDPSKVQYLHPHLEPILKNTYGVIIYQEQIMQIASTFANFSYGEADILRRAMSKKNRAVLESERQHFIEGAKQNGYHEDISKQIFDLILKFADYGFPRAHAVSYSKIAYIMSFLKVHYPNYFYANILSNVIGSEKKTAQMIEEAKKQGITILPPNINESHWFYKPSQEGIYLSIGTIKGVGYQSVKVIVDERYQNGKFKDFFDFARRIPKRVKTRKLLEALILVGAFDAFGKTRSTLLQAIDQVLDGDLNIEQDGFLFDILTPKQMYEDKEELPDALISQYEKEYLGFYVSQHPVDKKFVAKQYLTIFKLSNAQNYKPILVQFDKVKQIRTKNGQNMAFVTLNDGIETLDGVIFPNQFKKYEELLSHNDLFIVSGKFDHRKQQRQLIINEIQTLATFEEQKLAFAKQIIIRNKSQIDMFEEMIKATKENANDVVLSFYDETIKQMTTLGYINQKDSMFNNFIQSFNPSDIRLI
# How it was run: (§1)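 His-tagged E. coli DnaE (residues 1-1160, 0.8 μg/ml) or S. aureus DnaE (residues 1-1065, 0.05 μg/ml) incubated 30 min at 30° C. with activated calf thymus DNA, 0.025 mM dATP/dGTP/dCTP and 0.011 mM 3H-dTTP in Tris pH 7.5/Mg acetate. TCA-precipitated labelled DNA counted.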
# [2] = test system: Escherichia coli MB5747 (LS 883, tolC); test: microbe, parasite or virus in culture; type: cell-based; details: Escherichia coli, read-out: E. coli LS883 tolC (MIC), MHII broth; * = some reduction of growth versus control at […]
# [3] = test system: Staphylococcus aureus MB6266 (MRSA COL); test: Nargenicin antibacterial assay (MIC), S. aureus; type: cell-based; details: Staphylococcus aureus, MRSA, read-out: S. aureus COL (MIC), MHII broth + 50% human serum; * = some reduction of growth versus control at […]
# [4] = target: T2, E. coli DnaE (DNA polymerase III α-subunit from Escherichia coli) (Escherichia coli, UniProt P10443); test: In vitro DnaE single enzyme assay (E. coli); type: biochemical
# T2 construct: EcDnaE (E. coli DnaE residues 1-1160); 6xHis (N); made in house; host or cells: E. coli BL21(DE3)
# How it was run: as §1
# [5] = test system: Streptococcus pneumoniae MB6357 (CL 2883); test: Nargenicin antibacterial assay (MIC), S. pneumoniae; type: cell-based; details: Streptococcus pneumoniae, read-out: S. pneumoniae MB2883 (MIC), Isosensitest broth; * = some reduction of growth versus control at […]
# [6] = test system: Pseudomonas aeruginosa MB5890 (CB1101, efflux-deleted); test: microbe, parasite or virus in culture; type: cell-based; details: Pseudomonas aeruginosa, read-out: P. aeruginosa MB5890 efflux-del (MIC), MHII broth; * = some reduction of growth versus control at […]
# [7] = read-out: E. coli DnaE IC50 (converted)
# T2 sequence (P10443 whole entry, the tested form may be a part): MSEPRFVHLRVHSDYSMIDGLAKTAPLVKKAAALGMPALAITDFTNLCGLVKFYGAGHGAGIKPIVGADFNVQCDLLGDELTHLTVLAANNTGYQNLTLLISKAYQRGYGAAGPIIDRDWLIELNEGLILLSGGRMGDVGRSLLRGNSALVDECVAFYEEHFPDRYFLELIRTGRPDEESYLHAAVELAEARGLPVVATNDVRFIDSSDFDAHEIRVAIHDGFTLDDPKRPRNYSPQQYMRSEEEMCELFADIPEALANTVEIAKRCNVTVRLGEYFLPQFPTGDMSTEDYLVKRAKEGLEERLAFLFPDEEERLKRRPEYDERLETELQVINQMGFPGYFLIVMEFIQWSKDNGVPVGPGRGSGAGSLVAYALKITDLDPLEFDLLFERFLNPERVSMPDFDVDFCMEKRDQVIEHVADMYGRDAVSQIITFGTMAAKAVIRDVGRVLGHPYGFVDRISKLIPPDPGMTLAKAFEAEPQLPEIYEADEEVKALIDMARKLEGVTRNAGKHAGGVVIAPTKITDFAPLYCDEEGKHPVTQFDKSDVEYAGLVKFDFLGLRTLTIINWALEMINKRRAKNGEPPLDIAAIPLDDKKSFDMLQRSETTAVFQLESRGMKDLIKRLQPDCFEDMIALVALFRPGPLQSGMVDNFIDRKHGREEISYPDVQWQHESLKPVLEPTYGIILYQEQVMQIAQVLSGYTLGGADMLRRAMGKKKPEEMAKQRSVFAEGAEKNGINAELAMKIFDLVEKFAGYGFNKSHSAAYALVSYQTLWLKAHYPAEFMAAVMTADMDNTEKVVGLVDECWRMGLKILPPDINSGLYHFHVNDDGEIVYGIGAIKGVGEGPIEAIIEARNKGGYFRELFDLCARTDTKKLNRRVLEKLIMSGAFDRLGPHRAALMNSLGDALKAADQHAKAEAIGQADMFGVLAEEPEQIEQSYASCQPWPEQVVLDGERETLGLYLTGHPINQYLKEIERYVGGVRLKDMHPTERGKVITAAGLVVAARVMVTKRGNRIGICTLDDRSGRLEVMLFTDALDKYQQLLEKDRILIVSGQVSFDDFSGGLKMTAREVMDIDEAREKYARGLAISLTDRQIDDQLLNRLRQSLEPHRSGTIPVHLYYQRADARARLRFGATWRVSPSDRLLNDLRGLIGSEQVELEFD
Compound,IC50 ([1]; S. aureus DnaE IC50),MIC [2],MIC [3],"IC50 [4, 7]",MIC [5],MIC [6],IC50 ([4]; E. coli DnaE IC50),IC50 ([1]; read-out: S. aureus DnaE IC50 (converted))
"CC[C@H]1OC(=O)[C@@H](OC)C[C@H]2C=C[C@H]3[C@H]4O[C@]2(/C(C)=C/[C@H]1C)[C@@H]3[C@H](O)C(C)[C@H]4C#N (stereo partly drawn) [Example 189, (3R,4R,7S,8aS,10aR,11R,12S,14R,14aS,14bS,E)-4-ethyl-14-hydroxy-7-methoxy-1,3,13-trimethyl-6-oxo-3,4,6,7,8,8a,10a,11,12,13,14,14a-dodecahydro-11,14b-epoxynaphtho[2,1-e]oxecine-12-carbonitrile]",144 µM,> 128 µg/mL,> 128 µg/mL,> 241 µM,> 128 µg/mL,> 128 µg/mL,,
CO[C@H]1C[C@H]2C=C[C@@H]3[C@H]4[C@H](O)[C@@H](C)C(=O)[C@@H]3O[C@]42/C(C)=C/[C@@H](C)[C@@H]([C@@H](C)O)OC1=O [Example 202],78.5 µM,128 µg/mL,> 128 µg/mL,> 238 µM,> 128 µg/mL,> 128 µg/mL,,
CO[C@H]1C[C@H]2C=C[C@H]3[C@H]4O[C@]2(/C(C)=C/[C@@H](C)[C@@H]([C@@H](C)O)OC1=O)[C@@H]3[C@H](O)[C@@H](C)[C@H]4OC(=O)c1ccc(Br)[nH]1 [Example 43],0.202 µM,8 µg/mL,64 µg/mL,75.7 µM,128 µg/mL,> 128 µg/mL,,
CO[C@H]1C[C@H]2C=C[C@H]3[C@H]4O[C@]2(/C(C)=C/[C@@H](C)[C@@H]([C@@H](C)OC(=O)NC(C)C)OC1=O)[C@@H]3[C@H](O)[C@@H](C)[C@H]4OC(=O)c1ccc[nH]1 [Example 9],0.0333 µM,8 µg/mL,8 µg/mL,49.9 µM,32 µg/mL,> 128 µg/mL,,
CO[C@H]1C[C@H]2CC(=O)[C@H]3[C@H]4O[C@]2(/C(C)=C/[C@@H](C)[C@@H]([C@@H](C)O)OC1=O)[C@@H]3[C@H](O)[C@@H](C)[C@H]4OC(=O)c1ccc[nH]1 [Example 181],0.0941 µM,8 µg/mL,64 µg/mL,> 188 µM,> 128 µg/mL,32 µg/mL,,
C=CC[C@H]1OC(=O)[C@@H](OC)C[C@H]2C=C[C@H]3[C@H]4O[C@]2(/C(C)=C/[C@H]1C)[C@@H]3[C@H](O)[C@@H](C)[C@H]4OC(=O)c1ccc[nH]1 [Example 55],< 0.0117 µM,2 µg/mL,2 µg/mL,11.7 µM,> 64 µg/mL,32 µg/mL,,
"CO[C@H]1C[C@H]2C=C[C@H]3[C@H]4O[C@]2(/C(C)=C/[C@@H](C)[C@@H]([C@@H](C)O)OC1=O)[C@@H]3[C@H](O)[C@@H](C)[C@@H]4N [Example 151, (3R,4S,7S,8aS,10aR,11R,12S,13S,14R,14aS,14bS,E)-12-amino-14-hydroxy-4-((R)-1-hydroxyethyl)-7-methoxy-1,3,13-trimethyl-3,4,8,8a,10a,11,12,13,14,14 a-decahydro-11,14b-epoxynaphtho [2,1-e]oxecin-6(7H)-one]",4.98 µM,> 128 µg/mL,> 128 µg/mL,,> 128 µg/mL,> 128 µg/mL,> 237 µM,
CO[C@H]1C[C@H]2C=C[C@H]3[C@H]4O[C@]2(/C(C)=C/[C@@H](C)[C@@H]([C@@H](C)O)OC1=O)[C@@H]3[C@H](O)C(C)[C@@H]4NCCN1CCCCC1.O=C(O)C(F)(F)F (stereo partly drawn) [Example 156],,> 128 µg/mL,> 128 µg/mL,,> 128 µg/mL,> 128 µg/mL,> 155 µM,32.5 µM
